Test results taken from ChEMBL document CHEMBL5150004, “Targeting Rearranged during Transfection in Cancer: A Perspective on Small-Molecule Inhibitors and Their Clinical Development” (J Med Chem, 2021).
Blank lines part the entries; values can stand above or below the compound they belong to.

Key:
[1] = Inhibition of RET G810R (unknown origin); design: species or system Homo sapiens
[2] = molecular target: Vascular endothelial growth factor receptor 2 (Homo sapiens, UniProt P35968); assay: Inhibition of recombinant VEGFR2 (unknown origin) incubated for 120 mins by Perkin Elmer electrophoretic mobility shift platform method
NB1 = assay: cells; conditions: Homo sapiens
[3] = Inhibition of human recombinant RET Y719F using Biotin-EGPWLEEEEEAYGWMDF as substrate by TR-FRET assay
LNCaP = assay: Cytotoxicity against human LNCaP cells expressing BRAF incubated for 72 hrs by celltitre blue assay; format: functional
K562 = assay: Cytotoxicity against human K562 cells expressing BCR-ABL incubated for 72 hrs by celltitre blue assay; format: functional
[4] = Cytotoxicity against human TT-1 cells expressing RET incubated for 72 hrs by celltitre blue assay; format: functional
[5] = molecular target: T1, Tyrosine-protein kinase ABL1 (Homo sapiens, UniProt P00519); assay: Binding affinity to ABL (unknown origin) assessed as dissociation constant measured by ambit kinomescan assay
Hs-578T = assay: Cytotoxicity against human Hs-578T cells expressing BRAF incubated for 72 hrs by celltitre blue assay; format: functional
A-375 = assay: Cytotoxicity against human A-375 cells expressing BRAF V600E mutant incubated for 72 hrs by celltitre blue assay; format: functional
COLO 205 = assay: Cytotoxicity against human COLO 205 cells expressing BRAF V600E mutant incubated for 72 hrs by celltitre blue assay; format: functional
A-431 = assay: Cytotoxicity against human A-431 cells expressing C-KIT incubated for 72 hrs by celltitre blue assay; format: functional
[6] = molecular target: RAF proto-oncogene serine/threonine-protein kinase (Homo sapiens, UniProt P04049); assay: Inhibition of CRAF (unknown origin) by kinomescan assay
[7] = Cytotoxicity against HUVEC expressing FLT-1 incubated for 72 hrs by celltitre blue assay; format: toxicity, cell-based; conditions: human
[8] = Cytotoxicity against HUVEC expressing VEGFR2 incubated for 72 hrs by celltitre blue assay; format: toxicity, cell-based; conditions: human
HeLa = assay: Cytotoxicity against human HeLa cells expressing CRAF incubated for 72 hrs by celltitre blue assay; format: functional
[9] = molecular target: T1, Tyrosine-protein kinase ABL1; assay: Inhibition of ABL (unknown origin) by kinomescan assay
[10] = Inhibition of C-KIT (unknown origin) by kinomescan assay; design: species or system Homo sapiens
[11] = Inhibition of recombinant RET V804M (unknown origin) incubated for 120 mins by Perkin Elmer electrophoretic mobility shift platform method; design: species or system Homo sapiens
[12] = Inhibition of RET V804M (unknown origin); design: species or system Homo sapiens
[13] = molecular target: Proto-oncogene tyrosine-protein kinase receptor Ret (Homo sapiens) (UniProt P07949); conditions: NIH3T3
[14] = Inhibition of p38 (unknown origin); design: species or system Homo sapiens

T1 sequence (P00519 whole entry): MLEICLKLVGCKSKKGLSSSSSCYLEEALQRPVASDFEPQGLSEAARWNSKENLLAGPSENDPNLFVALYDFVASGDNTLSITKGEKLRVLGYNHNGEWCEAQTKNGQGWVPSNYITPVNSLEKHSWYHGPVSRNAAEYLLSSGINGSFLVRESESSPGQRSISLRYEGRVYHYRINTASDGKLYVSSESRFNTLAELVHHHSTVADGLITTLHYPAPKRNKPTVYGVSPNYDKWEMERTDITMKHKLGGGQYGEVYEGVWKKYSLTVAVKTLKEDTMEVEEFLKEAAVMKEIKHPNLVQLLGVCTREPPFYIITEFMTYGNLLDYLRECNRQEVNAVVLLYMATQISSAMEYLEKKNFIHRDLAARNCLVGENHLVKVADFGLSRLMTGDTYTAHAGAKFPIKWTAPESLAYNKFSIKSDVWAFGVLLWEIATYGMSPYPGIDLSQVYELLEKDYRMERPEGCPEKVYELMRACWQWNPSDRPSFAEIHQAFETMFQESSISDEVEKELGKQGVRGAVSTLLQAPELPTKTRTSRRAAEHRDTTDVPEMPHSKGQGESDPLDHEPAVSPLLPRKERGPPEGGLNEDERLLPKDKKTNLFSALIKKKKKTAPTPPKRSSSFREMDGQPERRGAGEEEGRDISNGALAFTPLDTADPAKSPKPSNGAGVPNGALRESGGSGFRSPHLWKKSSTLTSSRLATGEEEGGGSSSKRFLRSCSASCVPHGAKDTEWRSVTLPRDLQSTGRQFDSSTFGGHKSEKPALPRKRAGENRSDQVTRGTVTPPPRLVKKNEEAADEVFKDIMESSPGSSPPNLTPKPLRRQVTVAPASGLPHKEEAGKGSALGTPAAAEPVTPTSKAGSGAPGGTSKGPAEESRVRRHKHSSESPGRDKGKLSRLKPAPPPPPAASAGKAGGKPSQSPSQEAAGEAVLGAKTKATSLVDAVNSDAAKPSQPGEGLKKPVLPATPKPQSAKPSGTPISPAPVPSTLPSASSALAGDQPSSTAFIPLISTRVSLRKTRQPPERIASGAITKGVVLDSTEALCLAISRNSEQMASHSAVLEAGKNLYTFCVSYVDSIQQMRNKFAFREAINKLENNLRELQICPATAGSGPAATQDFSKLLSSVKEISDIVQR
Chain of RAF proto-oncogene serine/threonine-protein kinase (P04049 whole entry): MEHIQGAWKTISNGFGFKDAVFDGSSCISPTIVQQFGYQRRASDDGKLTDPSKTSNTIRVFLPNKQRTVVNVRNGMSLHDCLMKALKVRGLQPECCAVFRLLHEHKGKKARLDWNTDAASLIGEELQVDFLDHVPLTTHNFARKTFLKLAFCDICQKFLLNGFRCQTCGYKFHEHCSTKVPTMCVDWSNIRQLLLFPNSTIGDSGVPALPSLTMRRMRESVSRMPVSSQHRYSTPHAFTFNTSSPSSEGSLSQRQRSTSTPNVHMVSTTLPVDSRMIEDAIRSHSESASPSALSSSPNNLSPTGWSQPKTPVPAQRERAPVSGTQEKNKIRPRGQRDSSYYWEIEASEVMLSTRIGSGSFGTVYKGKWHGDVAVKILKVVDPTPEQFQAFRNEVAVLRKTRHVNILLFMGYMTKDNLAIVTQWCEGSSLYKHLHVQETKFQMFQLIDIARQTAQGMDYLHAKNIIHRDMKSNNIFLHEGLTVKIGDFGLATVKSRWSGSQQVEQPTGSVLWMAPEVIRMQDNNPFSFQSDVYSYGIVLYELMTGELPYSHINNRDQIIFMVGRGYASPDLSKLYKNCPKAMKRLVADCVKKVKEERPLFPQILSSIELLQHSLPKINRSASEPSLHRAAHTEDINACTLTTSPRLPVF
Chain of Vascular endothelial growth factor receptor 2 (P35968 whole entry): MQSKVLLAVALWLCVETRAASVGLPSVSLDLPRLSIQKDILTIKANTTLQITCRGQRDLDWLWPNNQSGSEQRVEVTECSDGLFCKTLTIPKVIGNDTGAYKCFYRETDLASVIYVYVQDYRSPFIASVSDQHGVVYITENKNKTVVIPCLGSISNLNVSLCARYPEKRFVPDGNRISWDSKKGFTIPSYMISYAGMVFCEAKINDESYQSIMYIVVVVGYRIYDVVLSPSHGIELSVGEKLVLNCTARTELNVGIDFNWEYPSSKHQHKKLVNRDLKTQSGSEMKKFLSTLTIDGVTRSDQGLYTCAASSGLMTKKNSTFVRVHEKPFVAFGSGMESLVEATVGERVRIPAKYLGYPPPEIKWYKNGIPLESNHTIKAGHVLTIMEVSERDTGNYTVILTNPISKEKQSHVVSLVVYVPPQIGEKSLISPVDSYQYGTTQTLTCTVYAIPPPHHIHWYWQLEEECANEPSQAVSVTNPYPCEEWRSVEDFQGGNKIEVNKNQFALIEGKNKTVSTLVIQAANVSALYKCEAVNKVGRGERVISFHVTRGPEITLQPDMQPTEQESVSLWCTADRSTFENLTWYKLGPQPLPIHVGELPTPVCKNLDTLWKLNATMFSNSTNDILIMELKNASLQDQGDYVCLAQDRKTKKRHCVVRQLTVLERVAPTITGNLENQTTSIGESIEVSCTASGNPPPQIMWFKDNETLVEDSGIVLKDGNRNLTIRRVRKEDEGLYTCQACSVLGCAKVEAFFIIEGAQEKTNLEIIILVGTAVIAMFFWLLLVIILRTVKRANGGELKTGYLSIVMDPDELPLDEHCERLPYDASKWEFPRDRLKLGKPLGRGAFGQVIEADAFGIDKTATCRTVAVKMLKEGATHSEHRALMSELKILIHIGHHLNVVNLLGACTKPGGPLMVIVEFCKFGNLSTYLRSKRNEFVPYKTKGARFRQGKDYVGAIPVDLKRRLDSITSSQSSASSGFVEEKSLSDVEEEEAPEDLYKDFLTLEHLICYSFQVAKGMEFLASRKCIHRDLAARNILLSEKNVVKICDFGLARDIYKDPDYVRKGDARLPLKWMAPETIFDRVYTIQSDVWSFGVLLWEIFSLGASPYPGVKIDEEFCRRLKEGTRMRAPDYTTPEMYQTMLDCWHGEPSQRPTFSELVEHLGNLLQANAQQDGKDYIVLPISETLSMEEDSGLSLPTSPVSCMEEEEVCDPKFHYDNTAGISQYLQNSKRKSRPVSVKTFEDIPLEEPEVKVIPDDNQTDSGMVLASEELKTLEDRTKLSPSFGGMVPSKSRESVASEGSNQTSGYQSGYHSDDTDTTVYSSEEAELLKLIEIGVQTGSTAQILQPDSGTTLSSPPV
Chain of Proto-oncogene tyrosine-protein kinase receptor Ret (Homo sapiens) (P07949 whole entry): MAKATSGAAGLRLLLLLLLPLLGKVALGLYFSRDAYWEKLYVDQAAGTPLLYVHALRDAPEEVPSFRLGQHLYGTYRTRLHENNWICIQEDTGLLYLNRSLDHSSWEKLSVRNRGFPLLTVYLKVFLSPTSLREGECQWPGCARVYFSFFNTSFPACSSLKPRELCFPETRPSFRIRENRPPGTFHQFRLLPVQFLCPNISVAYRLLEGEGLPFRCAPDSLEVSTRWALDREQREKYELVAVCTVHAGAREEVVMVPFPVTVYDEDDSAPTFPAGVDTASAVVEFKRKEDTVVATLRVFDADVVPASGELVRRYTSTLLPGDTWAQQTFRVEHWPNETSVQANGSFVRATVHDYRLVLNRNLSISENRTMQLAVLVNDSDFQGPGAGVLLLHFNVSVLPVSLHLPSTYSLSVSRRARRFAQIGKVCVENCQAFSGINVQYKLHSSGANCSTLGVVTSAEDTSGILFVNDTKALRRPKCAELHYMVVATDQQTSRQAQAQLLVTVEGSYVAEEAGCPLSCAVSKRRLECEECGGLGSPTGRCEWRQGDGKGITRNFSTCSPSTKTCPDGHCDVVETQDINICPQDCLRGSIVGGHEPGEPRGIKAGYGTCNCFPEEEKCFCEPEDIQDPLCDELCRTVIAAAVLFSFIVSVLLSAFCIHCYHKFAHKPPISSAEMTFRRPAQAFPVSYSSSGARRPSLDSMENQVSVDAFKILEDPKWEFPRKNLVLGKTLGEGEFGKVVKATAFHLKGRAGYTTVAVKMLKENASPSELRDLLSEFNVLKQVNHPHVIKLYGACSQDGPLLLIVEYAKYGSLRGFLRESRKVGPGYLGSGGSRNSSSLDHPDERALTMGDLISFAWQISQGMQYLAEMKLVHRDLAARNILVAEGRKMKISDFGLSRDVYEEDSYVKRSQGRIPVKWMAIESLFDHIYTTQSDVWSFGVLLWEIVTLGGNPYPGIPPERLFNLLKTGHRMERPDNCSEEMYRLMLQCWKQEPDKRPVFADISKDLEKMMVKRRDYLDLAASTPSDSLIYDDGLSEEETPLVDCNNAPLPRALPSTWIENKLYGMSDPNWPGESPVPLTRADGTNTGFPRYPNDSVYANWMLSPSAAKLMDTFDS

SMILES: CCc1cc2c(cc1N1CCC(N3CCOCC3)CC1)C(C)(C)c1[nH]c3cc(C#N)ccc3c1C2=O [ALECTINIB]
IC50 (NB1): 0.0045 µM
IC50 [3]: 0.014 µM

SMILES: COc1cc2ncnc(Oc3cccc(NC(=O)Nc4cc(C(C)(C)C(F)(F)F)on4)c3)c2cc1OC [CEP-32496]
GI50 (LNCaP): 6.63 µM
GI50 (K562): 0.07 µM
GI50 [4]: 0.021 µM
Kd [5]: 0.0028 µM
GI50 (Hs-578T): 2.74 µM
GI50 (A-375): 0.084 µM
GI50 (COLO 205): 0.06 µM
GI50 (A-431): 1 µM
IC50 [6]: 0.146 µM
GI50 at 72 h [7]: ≥ 1 µM
GI50 at 72 h [8]: ≥ 0.7 µM
GI50 (HeLa): ≥ 3 µM
IC50 [9]: 0.006 µM
IC50 [10]: 0.001 µM

SMILES: C[C@H]1CNC(=O)c2cnn3cc4c(nc23)N(Cc2cc(F)cnc2O1)[C@@H]1CCC[C@@H]1O4 [ENBEZOTINIB]
IC50 [1]: 0.017 µM

SMILES: CNC(=O)c1cc(Oc2ccc(NC(=O)Nc3ccc(Cl)c(C(F)(F)F)c3)cc2)ccn1 [SORAFENIB]
IC50 [12]: 0.0079 µM
GI50 [13]: 0.047 µM
IC50 [14]: 0.038 µM

Results, then the compound that gave them:

IC50 [1]: > 0.5 µM
IC50 [2]: 0.035 µM
SMILES: COC1(C(=O)N[C@@H](C)c2ccc(-n3cc(F)cn3)nc2)CCC(c2nc(C)cc(Nc3cc(C)[nH]n3)n2)CC1 (some centres undefined)

IC50 [11]: 0.0008 µM
IC50 [1]: > 0.5 µM
SMILES: COc1ccc(CN2C3CC2CN(c2ccc(-c4cc(OCC(C)(C)O)cn5ncc(C#N)c45)cn2)C3)cn1 [SELPERCATINIB]
